From US6914045B2, “Glycopeptide antibiotics” (Wyeth Holdings Corporation, priority 2001, dated 2005)
≈ marks a conversion by molar mass, not a printed value.

How the values were obtained:
Assay in all cases: in vitro antibacterial evaluation, MIC by broth dilution
Format in all cases: cell-based
Enterococcus sp. = details: broth dilution, 18 hours at 35° C.
In short: (§1)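 MIC = lowest antibiotic concentration preventing visible growth; inoculum 5×10^5 CFU/mL; drug range 64-0.06 μg/mL; Muller-Hinton II […]; NCCLS M7-A2 guidance.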

Staphylococcus sp. = details: broth dilution, 18 hours at 35° C.
In short: as §1

Escherichia coli = details: 18 hours at 35° C.
In short: as §1

Streptococcus sp. = details: broth dilution, 18 hours at 35° C.
In short: as §1

MIC Enterococcus avium (GC 4558) (Enterococcus sp.; Enterococcus avium (GC 4558)): 2 µg/mL (≈ 1.37 µM)
MIC Enterococcus faecalis (ATCC 29212) (Enterococcus sp.; Enterococcus faecalis (ATCC 29212)): 2 µg/mL (≈ 1.37 µM)
MIC Enterococcus faecalis (GC 2242) (Enterococcus sp.; Enterococcus faecalis (GC 2242)): 2 µg/mL (≈ 1.37 µM)
MIC Enterococcus faecalis (GC 2691) (Enterococcus sp.; Enterococcus faecalis (GC 2691)): 2 µg/mL (≈ 1.37 µM)
MIC Enterococcus faecalis (GC 3059) (Enterococcus sp.; Enterococcus faecalis (GC 3059)): 2 µg/mL (≈ 1.37 µM)
MIC Enterococcus faecalis (GC 4552) (Enterococcus sp.; Enterococcus faecalis (GC 4552)): 2 µg/mL (≈ 1.37 µM)
MIC Enterococcus faecalis (GC 4553) (Enterococcus sp.; Enterococcus faecalis (GC 4553)): 2 µg/mL (≈ 1.37 µM)
MIC Enterococcus faecalis (GC 4554) (Enterococcus sp.; Enterococcus faecalis (GC 4554)): 2 µg/mL (≈ 1.37 µM)
MIC Enterococcus faecalis (GC 6189) (Enterococcus sp.; Enterococcus faecalis (GC 6189)): 2 µg/mL (≈ 1.37 µM)
MIC Enterococcus faecium (GC 2243) (Enterococcus sp.; Enterococcus faecium (GC 2243)): 2 µg/mL (≈ 1.37 µM)
MIC Enterococcus faecium (GC 4556) (Enterococcus sp.; Enterococcus faecium (GC 4556)): 2 µg/mL (≈ 1.37 µM)
MIC Enterococcus faecium (GC 4557) (Enterococcus sp.; Enterococcus faecium (GC 4557)): 2 µg/mL (≈ 1.37 µM)
MIC Enterococcus faecalis (ATCC 29212) (Enterococcus sp.; strain ATCC 29212): 2 µg/mL (≈ 1.37 µM)
MIC Enterococcus faecalis (GC 2242) (Enterococcus sp.; strain GC 2242): 2 µg/mL (≈ 1.37 µM)
MIC Enterococcus faecium (GC 2243) (Enterococcus sp.; strain GC 2243): 2 µg/mL (≈ 1.37 µM)
MIC Enterococcus faecalis (GC 2691) (Enterococcus sp.; strain GC 2691): 2 µg/mL (≈ 1.37 µM)
MIC Enterococcus faecalis (GC 3059) (Enterococcus sp.; strain GC 3059): 2 µg/mL (≈ 1.37 µM)
MIC Enterococcus faecalis (GC 4552) (Enterococcus sp.; strain GC 4552): 2 µg/mL (≈ 1.37 µM)
MIC Enterococcus faecalis (GC 4553) (Enterococcus sp.; strain GC 4553): 2 µg/mL (≈ 1.37 µM)
MIC Enterococcus faecalis (GC 4554) (Enterococcus sp.; strain GC 4554): 2 µg/mL (≈ 1.37 µM)
MIC Enterococcus faecium (GC 4556) (Enterococcus sp.; strain GC 4556): 2 µg/mL (≈ 1.37 µM)
MIC Enterococcus faecium (GC 4557) (Enterococcus sp.; strain GC 4557): 2 µg/mL (≈ 1.37 µM)
MIC Enterococcus avium (GC 4558) (Enterococcus sp.; strain GC 4558): 2 µg/mL (≈ 1.37 µM)
MIC Enterococcus faecalis (GC 6189) (Enterococcus sp.; strain GC 6189): 2 µg/mL (≈ 1.37 µM)
MIC Staphylococcus aureus (ATCC 29213) (Staphylococcus sp.): 4 µg/mL (≈ 2.75 µM)
MIC Staphylococcus aureus (GC 1131) (Staphylococcus sp.): 2 µg/mL (≈ 1.37 µM)
MIC Staphylococcus aureus (GC 3051) (Staphylococcus sp.): 2 µg/mL (≈ 1.37 µM)
MIC Staphylococcus aureus (GC 3053) (Staphylococcus sp.): 2 µg/mL (≈ 1.37 µM)
MIC Staphylococcus aureus (GC 4541) (Staphylococcus sp.): 2 µg/mL (≈ 1.37 µM)
MIC Staphylococcus aureus (GC 4542) (Staphylococcus sp.): 2 µg/mL (≈ 1.37 µM)
MIC Staphylococcus aureus (GC 4544) (Staphylococcus sp.): 2 µg/mL (≈ 1.37 µM)
MIC Staphylococcus aureus (GC 4545) (Staphylococcus sp.): 2 µg/mL (≈ 1.37 µM)
MIC Staphylococcus aureus (GC 1131) (Staphylococcus sp.; inoculum 5×10^5 CFU/mL, strain GC 1131): 2 µg/mL (≈ 1.37 µM)
MIC Staphylococcus aureus (ATCC 29213) (Staphylococcus sp.; strain ATCC 29213): 4 µg/mL (≈ 2.75 µM)
MIC Staphylococcus aureus (GC 3051) (Staphylococcus sp.; strain GC 3051): 2 µg/mL (≈ 1.37 µM)
MIC Staphylococcus aureus (GC 3053) (Staphylococcus sp.; strain GC 3053): 2 µg/mL (≈ 1.37 µM)
MIC Staphylococcus aureus (GC 4541) (Staphylococcus sp.; strain GC 4541): 2 µg/mL (≈ 1.37 µM)
MIC Staphylococcus aureus (GC 4542) (Staphylococcus sp.; strain GC 4542): 2 µg/mL (≈ 1.37 µM)
MIC Staphylococcus aureus-SMITH (GC 4543) (Staphylococcus sp.; strain GC 4543): 2 µg/mL (≈ 1.37 µM)
MIC Staphylococcus aureus (GC 4544) (Staphylococcus sp.; strain GC 4544): 2 µg/mL (≈ 1.37 µM)
MIC Staphylococcus aureus (GC 4545) (Staphylococcus sp.; strain GC 4545): 2 µg/mL (≈ 1.37 µM)
MIC Coagulase Negative Staphylococcus (GC 4547) (Staphylococcus sp.; strain GC 4547): 2 µg/mL (≈ 1.37 µM)
MIC Coagulase Negative Staphylococcus (GC 4548) (Staphylococcus sp.; strain GC 4548): 1 µg/mL (≈ 0.687 µM)
MIC Coagulase Negative Staphylococcus (GC 4549) (Staphylococcus sp.; strain GC 4549): 1 µg/mL (≈ 0.687 µM)
MIC Coagulase Negative Staphylococcus (GC 4551) (Staphylococcus sp.; strain GC 4551): 4 µg/mL (≈ 2.75 µM)
MIC Coagulase Negative Staphylococcus (GC 6257) (Staphylococcus sp.; strain GC 6257): 1 µg/mL (≈ 0.687 µM)
MIC Staphylococcus aureus-SMITH (GC 4543) (Staphylococcus sp.; strain SMITH GC 4543): 2 µg/mL (≈ 1.37 µM)
MIC Escherichia coli (ATCC 25922) (Escherichia coli; strain ATCC 25922): 32 µg/mL (≈ 22 µM)
MIC Escherichia coli (GC 4559) (Escherichia coli; strain GC 4559): 32 µg/mL (≈ 22 µM)
MIC Escherichia coli (GC 4560) (Escherichia coli; strain GC 4560): 2 µg/mL (≈ 1.37 µM)
MIC Streptococcus agalactiae (GC 4564) (Streptococcus sp.; Streptococcus agalactiae (GC 4564)): <0.06 µg/mL
MIC Streptococcus pneumoniae (ATCC 6301) (Streptococcus sp.; Streptococcus pneumoniae (ATCC 6301)): <0.06 µg/mL
MIC Streptococcus pneumoniae (GC 1894) (Streptococcus sp.; Streptococcus pneumoniae (GC 1894)): <0.06 µg/mL
MIC Streptococcus pneumoniae (GC 4565) (Streptococcus sp.; Streptococcus pneumoniae (GC 4565)): <0.06 µg/mL
MIC Streptococcus pyogenes (GC 4563) (Streptococcus sp.; Streptococcus pyogenes (GC 4563)): <0.06 µg/mL
MIC Streptococcus pneumoniae (ATCC 6301) (Streptococcus sp.; strain ATCC 6301): <0.06 µg/mL
MIC Streptococcus pneumoniae (GC 1894) (Streptococcus sp.; strain GC 1894): <0.06 µg/mL
MIC Streptococcus pyogenes (GC 4563) (Streptococcus sp.; strain GC 4563): <0.06 µg/mL
MIC Streptococcus agalactiae (GC 4564) (Streptococcus sp.; strain GC 4564): <0.06 µg/mL
MIC Streptococcus pneumoniae (GC 4565) (Streptococcus sp.; strain GC 4565): <0.06 µg/mL
Structure (SMILES): CC(c1ccccc1)C1NC(=O)CNC(=O)C(CO)NC(=O)C(C(O)C2CNC(=N)N2C2OC(CO)C(O)C(O)C2O)NC(=O)C(C(O)C2CNC(=N)N2)NC(=O)C(Cc2ccc(OC3OC(CO)C(OC4OC5COC(CC67CC8CC(CC(C8)C6)C7)OC5C(O)C4O)C(O)C3O)cc2)NC1=O (stereo not shown) [Example 129]
MIC Staphylococcus haemolyticus (GC 4546) (Staphylococcus sp.; strain GC 4546): 2 µg/mL (≈ 1.37 µM)
